Values quoted from earlier work, collected in patent publication US20080161248A1, “Methods and Compositions for Therapeutic Treatment” (priority 2006, published 2008).
Like-named read-outs stand apart in the source and are kept apart here.

Columns and labels:
[1] = liver transplantation, European study, 12-month post-transplant; cited from earlier work
[2] = kidney transplant patients, cited from earlier work

In the case of `C=CC[C@@H]1/C=C(\C)C[C@H](C)C[C@H](OC)C2O[C@@](O)(C(=O)C(=O)N3CCCC[C@H]3C(=O)O[C@H](/C(C)=C/[C@@H]3CC[C@@H](O)[C@H](OC)C3)[C@H](C)[C@@H](O)CC1=O)[C@H](C)C[C@@H]2OC` (relative stereo) [Prograf, [3S-[3R[E(1S*,3S*,4S*)], 4S*,5R*,8S*,9E,12R*,14R*,15S*,16R*,18S*,19S*,26aR*]]-,6,8,11,12,13,14,15,16,17,18,19,24,25,26,26a-hexadecahydro-5,19-dihydroxy-3-[2-(4-hydroxy-3-methoxycyclohexyl)-1-methylethenyl]-14,16-dimethoxy-4,10,12,18-tetramethyl-8-(2-propenyl)-15,19-epoxy-3H-pyrido[2,1-c][1,4]oxaazacyclotricosine-1,7,20,21 (4H,23H)-tetrone, monohydrate], the “Adverse event: Abdominal Pain” value [1] is given as 29%, the “Adverse event: Anemia” value [1] is given as 5% and the “Adverse event: Anorexia” value [1] is given as 7%. For the same compound, the “Adverse event: Ascites” value [1] was 7%, the “Adverse event: Asthenia” value [1] was 11% and the “Adverse event: Atelectasis” value [1] was 5%. The “Adverse event: BUN Increased” value [1] was 12%, the “Adverse event: Back Pain” value [1] was 17% and the “Adverse event: Constipation” value [1] was 23%. The “Adverse event: Creatinine Increased” value [1] was 24%, the “Adverse event: Diarrhea” value [1] was 37% and the “Adverse event: Dyspnea” value [1] was 5%. For the same compound, the “Adverse event: Fever” value [1] was 19%, the “Adverse event: Headache” value [1] was 37% and the “Adverse event: Hyperglycemia” value [1] was 33%. The “Adverse event: Hyperkalemia” value [1] was 13%, the “Adverse event: Hypertension” value [1] was 38% and the “Adverse event: Hypokalemia” value [1] was 13%. The “Adverse event: Hypomagnesemia” value [1] was 16%, the “Adverse event: Insomnia” value [1] was 32% and the “Adverse event: Kidney Function Abnormal” value [1] was 36%. The “Adverse event: LFT Abnormal” value [1] was 6%, the “Adverse event: Leukocytosis” value [1] was 8% and the “Adverse event: Nausea” value [1] was 32%. The “Adverse event: Oliguria” value [1] was 19%, the “Adverse event: Pain” value [1] was 24% and the “Adverse event: Paresthesia” value [1] was 17%. For the same compound, the “Adverse event: Peripheral Edema” value [1] was 12%, the “Adverse event: Pleural Effusion” value [1] was 36% and the “Adverse event: Pruritus” value [1] was 15%. For the same compound, the “Adverse event: Rash” value [1] was 10%, the “Adverse event: Thrombocytopenia” value [1] was 14% and the “Adverse event: Tremor” value [1] was 48%. The “Adverse event: Urinary Tract Infection” value [1] was 21%, the “Adverse event: Vomiting” value [1] was 14% and the “Adverse event: Abdominal Pain” value [2] was 33%. The “Adverse event: Anemia” value [2] was 30%, the “Adverse event: Arthralgia” value [2] was 25% and the “Adverse event: Asthenia” value [2] was 34%. For the same compound, the “Adverse event: Back Pain” value [2] was 24%, the “Adverse event: Chest pain” value [2] was 19% and the “Adverse event: Constipation” value [2] was 35%. For the same compound, the “Adverse event: Cough Increased” value [2] was 18%, the “Adverse event: Creatinine Increased” value [2] was 45% and the “Adverse event: Diabetes Mellitus” value [2] was 24%. For the same compound, the “Adverse event: Diarrhea” value [2] was 44%, the “Adverse event: Dizziness” value [2] was 19% and the “Adverse event: Dyspepsia” value [2] was 28%. The “Adverse event: Dyspnea” value [2] was 22%, the “Adverse event: Edema” value [2] was 18% and the “Adverse event: Fever” value [2] was 29%. For the same compound, the “Adverse event: Headache” value [2] was 44%, the “Adverse event: Hyperglycemia” value [2] was 22% and the “Adverse event: Hyperkalemia” value [2] was 31%. For the same compound, the “Adverse event: Hyperlipemia” value [2] was 31%, the “Adverse event: Hypertension” value [2] was 50% and the “Adverse event: Hypokalemia” value [2] was 22%. The “Adverse event: Hypomagnesemia” value [2] was 34%, the “Adverse event: Hypophosphatemia” value [2] was 49% and the “Adverse event: Infection” value [2] was 45%. The “Adverse event: Insomnia” value [2] was 32%, the “Adverse event: Leukopenia” value [2] was 15% and the “Adverse event: Nausea” value [2] was 38%. For the same compound, the “Adverse event: Pain” value [2] was 32%, the “Adverse event: Paresthesia” value [2] was 23% and the “Adverse event: Peripheral Edema” value [2] was 36%. For the same compound, the “Adverse event: Pruritus” value [2] was 15%, the “Adverse event: Rash” value [2] was 17% and the “Adverse event: Urinary Tract Infection” value [2] was 34%. The “Adverse event: Vomiting” value [2] was 29% and the “Adverse event: Tremor” value ([2]; monohydrate) was 54%.
